Assay results published in ChEMBL document CHEMBL1140146, “Cycloartane glycosides from Sutherlandia frutescens” (J Nat Prod, 2008).
Active and inactive are the calls of the source.

What was measured:
Format in all cases: functional, organism-based
Staphylococcus aureus [1] = assay: Antimicrobial activity against Staphylococcus aureus at 20 ug/mL by microplate assay
Pseudomonas aeruginosa = assay: Antimicrobial activity against Pseudomonas aeruginosa at 20 ug/mL
Cryptococcus neoformans = assay: Antimicrobial activity against Cryptococcus neoformans at 20 ug/mL by microplate assay
[2] = tested on: Mycobacterium intracellulare; assay: Antimicrobial activity against Mycobacterium intracellular at 20 ug/mL
Staphylococcus aureus [3] = assay: Antimicrobial activity against methicillin-resistant Staphylococcus aureus at 20 ug/mL by microplate assay
Aspergillus fumigatus = assay: Antimicrobial activity against Aspergillus fumigatus at 20 ug/mL
Candida albicans = assay: Antimicrobial activity against Candida albicans at 20 ug/mL by NCCLS method
Plasmodium falciparum [4] = assay: Antimalarial activity against Plasmodium falciparum W2 at 40 ug/mL
Plasmodium falciparum [5] = assay: Antimalarial activity against Plasmodium falciparum D6 at 40 ug/mL

Measured: Activity

C[C@H](CC[C@H](O)C(C)(C)O[C@@H]1O[C@H](CO)[C@@H](O)[C@H](O)[C@H]1O)[C@H]1CC[C@@]2(C)[C@@H]3CC[C@H]4C(C)(C)[C@H](O)CC(=O)[C@@]45C[C@@]35C(=O)C[C@]12C
inactive: all assays above

C[C@H](CC[C@H](O)C(C)(C)O[C@@H]1O[C@H](CO)[C@@H](O)[C@H](O)[C@H]1O)[C@H]1CC[C@@]2(C)[C@H]3C(=CC[C@]12C)C[C@]12O[C@H]3C[C@H]1C(C)(C)[C@H](O)C[C@@H]2O
inactive: all assays above

C[C@H](CC[C@H](O)C(C)(C)O[C@@H]1O[C@H](CO)[C@@H](O)[C@H](O)[C@H]1O)[C@H]1CC[C@@]2(C)[C@@H]3[C@@H](O)C[C@H]4C(C)(C)C=CC(=O)[C@@]45C[C@@]35CC[C@]12C
inactive: all assays above

C[C@H](CC[C@H](O)C(C)(C)O[C@@H]1O[C@H](CO)[C@@H](O)[C@H](O)[C@H]1O)[C@H]1CC[C@@]2(C)[C@@H]3[C@@H](O)C[C@H]4C(C)(C)[C@H](O)CC(=O)[C@@]45C[C@@]35CC[C@]12C
inactive: all assays above
